# Laboratory results published in patent publication US11142527B2, “Dihydropyrimidine compounds and uses thereof in medicine” (SUNSHINE LAKE PHARMA CO., LTD., priority 2017, dated 2021).
# System: HBV
# Experiment: Test of anti HBV activity in vitro (viral DNA by qPCR)
# Type: cell-based
# Details: Hepatitis B virus; HepG2.2.15 cells, viral DNA in cell culture supernatant by qPCR; read-out: EC50 values of the compound of the invention on viral replication
# Procedure: Test 1: Test Method of Calculating Anti HBV EC50
# HBV Cell Line and Culture Conditions
# HepG2.2.15 (SELLS, PNAS, 1987 and SELLS, JV, 1988) chromosomes have an integrated complete HBV genome, and stably express viral RNA and viral protein. HepG2.2.15 cells can secrete mature HBV particles, HBsAg and HBeAg, to medium. HepG2.2.15 cells were cultured in DMEM containing 10% fetal bovine serum, 100 U/mL penicillin, 100 U/mL streptomycin, 1% non essential amino acid, 1 mM sodium pyruvate and 300 μg/mL G418.
# Viral particles DNA secreted from HepG2.2.15 cells can be quantified by qPCR, and the effect of the compound on viral replication can be detected.
# Test of Anti HBV Activity In Vitro
# 8000 HepG 2.2.15 cells per well were seeded into a 96-well plate, the plate was cultured at 37° C. and 5% CO2 for 3 days till the cells grew to full wells. Old liquid medium can be removed and replaced with new medium (200 μL) on day 0.
# Formulating the compound and treating the cells in the experiment of anti virus: the compound was dissolved in DMSO to a concentration of 30 mM, and then the compound solution was diluted with DMSO to a concentration of 800 μM, and then eight dilutions at 4 fold were performed, the highest concentration is 800 μM. The serial diluted compound was added to the above plate at 1 μL per well, the highest final concentration in the experiment is 4 μM (200 fold dilution). TDF (tenofovir dipiroxil fumarate, Selleck, Cat S1400) has a highest concentration of 4 μM as a positive control. 1 μL of DMSO was added in to the […] at a final concentration of 0.5%, TDF was added in to the […] at a final concentration of 1 μM.
# Detection of Viral Genomic DNA by aPCR
# Primer: HBV-For-202, […]; HBV-Rev-315, […]. Copies of virus can be calculated using a standard curve plotted by using plasmid containing HBV genome and using SYBR Premix Ex Taq II—Takara DRR081S kit and 1 μL cell culture supernatant as a template. EC50 values of the compound on viral replication were calculated by a four parametric nonlinear regression model using Graphpad Prism 5 software to manage concentration—viral copy number.
row,Compound,EC50 [nM]
1,"COC(=O)C1=C(CN2CCN3C(=O)N(c4ccc(Oc5ccc(C(=O)O)cc5F)cc4F)C[C@@H]3C2)NC(c2nccs2)=N[C@H]1c1ccc(F)cc1Cl [Example 14, 4-(4-((S)-7-(((R)-6-(2-chloro-4-fluorophenyl)-5-(methoxycarbonyl)-2-(thiazol-2-yl)-3,6-dihydropyrimidin-4-yl)methyl)-3-oxohexahydroimidazo[1,5-a]pyrazin-2(3H)-yl)-3-fluorophenoxy)-3-fluorobenzoic acid]",22.7
2,"COC(=O)C1=C(CN2CCN3C(=O)N(c4nc(-c5ccc(C(=O)O)cc5)cs4)C[C@@H]3C2)NC(c2nccs2)=N[C@H]1c1ccc(F)cc1Cl [Example 15, 4-(2-((S)-7-(((R)-6-(2-chloro-4-fluorophenyl)-5-(methoxycarbonyl)-2-(thiazol-2-yl)-3,6-dihydropyrimidin-4-yl)methyl)-3-oxohexahydroimidazo[1,5-a]pyrazin-2(3H)-yl)thiazol-4-yl)benzoic acid]",10.8
3,"COC(=O)C1=C(CN2CCN3C(=O)N(c4ccc(Oc5cccc(C(=O)O)c5)cn4)C[C@@H]3C2)NC(c2nccs2)=N[C@H]1c1ccc(F)cc1Cl [Example 16, 3-((6-((S)-7-(((R)-6-(2-chloro-4-fluorophenyl)-5-(methoxycarbonyl)-2-(thiazol-2-yl)-3,6-dihydropyrimidin-4-yl)methyl)-3-oxohexahydroimidazo[1,5-a]pyrazin-2(3H)-yl)pyridin-3-yl)oxy)benzoic acid]",12
4,"COC(=O)C1=C(CN2CCN3C(=O)N(c4ccc(-c5ccc(C(C)(C)C(=O)O)cc5)cc4)C[C@@H]3C2)NC(c2nccs2)=N[C@H]1c1ccc(F)cc1Cl [Example 18, 2-(4′-((S)-7-(((R)-6-(2-chloro-4-fluorophenyl)-5-(methoxycarbonyl)-2-(thiazol-2-yl)-3,6-dihydropyrimidin-4-yl)methyl)-3-oxohexahydroimidazo[1,5-a]pyrazin-2(3H)-yl)-[1,1′-diphenyl]-4-yl)-2-methyl propionic acid]",13
5,"COC(=O)C1=C(CN2CCN3C(=O)N(c4ccc(N5CCC(C(=O)O)CC5)cc4)C[C@@H]3C2)NC(c2nccs2)=N[C@H]1c1ccc(F)cc1Cl [Example 21, 1-(4-((S)-7-(((R)-6-(2-chloro-4-fluorophenyl)-5-(methoxycarbonyl)-2-(thiazol-2-yl)-3,6-dihydropyrimidin-4-yl)methyl)-3-oxohexahydroimidazo[1,5-a]pyrazin-2(3H)-yl)phenyl) piperidine-4-carboxylic acid]",5
6,"COC(=O)C1=C(CN2CCN3C(=O)N(c4ccc(C5(C(=O)O)CC5)cc4)C[C@@H]3C2)NC(c2nccs2)=N[C@H]1c1ccc(F)cc1Cl [Example 27, 1-(4-((S)-7-(((R)-6-(2-chloro-4-fluorophenyl)-5-(methoxycarbonyl)-2-(thiazol-2-yl)-3,6-dihydropyrimidin-4-yl)methyl)-3-oxohexahydroimidazo[1,5-a]pyrazin-2(3H)-yl)phenyl)cyclopropane carboxylic acid]",10
7,"COC(=O)C1=C(CN2CCN3C(=O)N(c4ccc(C5(C(=O)O)CCC5)cc4)C[C@@H]3C2)NC(c2nccs2)=N[C@H]1c1ccc(F)cc1Cl [Example 28, 1-(4-((S)-7-(((R)-6-(2-chloro-4-fluorophenyl)-5-(methoxycarbonyl)-2-(thiazol-2-yl)-3,6-dihydropyrimidin-4-yl)methyl)-3-oxohexahydroimidazo[1,5-a]pyrazin-2(3H)-yl)phenyl)cyclobutane carboxylic acid]",4
8,"COC(=O)C1=C(CN2CCN3C(=O)N(c4ccc(C5(C(=O)O)CCCC5)cc4)C[C@@H]3C2)NC(c2nccs2)=N[C@H]1c1ccc(F)cc1Cl [Example 29, 1-(4-((S)-7-(((R)-6-(2-chloro-4-fluorophenyl)-5-(methoxycarbonyl)-2-(thiazol-2-yl)-3,6-dihydroprimidin-4-yl)methyl)-3-oxohexahydroimidazo[1,5-a]pyrazin-2(3H)-yl)phenyl) cyclopentane carboxylic acid]",6
9,"COC(=O)C1=C(CN2CCN3C(=O)N(c4ccc(C5(C(=O)O)CCCCC5)cc4)C[C@@H]3C2)NC(c2nccs2)=N[C@H]1c1ccc(F)cc1Cl [Example 30, 1-(4-((S)-7-(((R)-6-(2-chloro-4-fluorophenyl)-5-(methoxycarbonyl)-2-(thiazol-2-yl)-3,6-dihydropyrimidin-4-yl)methyl)-3-oxohexahydroimidazo[1,5-a]pyrazin-2(3H)-yl)phenyl) cyclohexanecarboxylic acid]",9
10,"COC(=O)C1=C(CN2CCN3C(=O)N(CC#Cc4ccc(C(N)=O)cc4)C[C@@H]3C2)NC(c2nccs2)=N[C@H]1c1ccc(F)cc1Cl [Example 39, (R)-methyl 6-(((S)-2-(3-(4-carbamoylphenyl)prop-2-yn-1-yl)-3-oxohexahydroimidazo[1,5-a]pyrazin-7(1H)-yl)methyl)-4-(2-chloro-4-fluorophenyl)-2-(thiazol-2-yl)-1,4-dihydropyrimidine-5-carboxylate]",6.6
11,"CONC(=O)c1ccc(C#CCN2C[C@@H]3CN(CC4=C(C(=O)OC)[C@H](c5ccc(F)cc5Cl)N=C(c5nccs5)N4)CCN3C2=O)cc1 [Example 40, (R)-methyl 4-(2-chloro-4-fluorophenyl)-6-(((S)-2-(3-(4-(methoxycarbamoyl)phenyl)prop-2-yn-1-yl)-3-oxohexahydroimidazo[1,5-a]pyrazin-7(1H)-yl)methyl)-2-(thiazol-2-yl)-1,4-dihydropyrimidine-5-carboxylate]",8.2
12,"COC(=O)C1=C(CN2CCN3C(=O)N(CC#Cc4ccc(OC)cc4)C[C@@H]3C2)NC(c2nccs2)=N[C@H]1c1ccc(F)cc1Cl [Example 45, (R)-methyl 4-(2-chloro-4-fluorophenyl)-6-(((S)-2-(3-(4-methoxyphenyl)prop-2-yn-1-yl)-3-oxohexahydroimidazo[1,5-a]pyrazin-7(1H)-yl)methyl)-2-(thiazol-2-yl)-1,4-dihydropyrimidine-5-carboxylate]",14.4
13,"COC(=O)C1=C(CN2CCN3C(=O)N(CC#Cc4ccc(C(=O)O)c(OC)c4)C[C@@H]3C2)NC(c2nccs2)=N[C@H]1c1ccc(F)cc1Cl [Example 52, 4-(3-((S)-7-(((R)-6-(2-chloro-4-fluorophenyl)-5-(methoxycarbonyl)-2-(thiazol-2-yl)-3,6-dihydropyrimidin-4-yl)methyl)-3-oxohexahydroimidazo[1,5-a]pyrazin-2(3H)-yl)prop-1-yn-1-yl)-2-methoxybenzoic acid]",41.8
14,"COC(=O)C1=C(CN2CCN3C(=O)N(CC#Cc4ccc(C(=O)O)cc4OC)C[C@@H]3C2)NC(c2nccs2)=N[C@H]1c1ccc(F)cc1Cl [Example 53, 4-(3-((S)-7-(((R)-6-(2-chloro-4-fluorophenyl)-5-(methoxycarbonyl)-2-(thiazol-2-yl)-3,6-dihydropyrimidin-4-yl)methyl)-3-oxohexahydroimidazo[1,5-a]pyrazin-2(3H)-yl)prop-1-yn-1-yl)-3-methoxybenzoic acid]",34.1
15,"COC(=O)C1=C(CN2CCN3C(=O)N(c4ccc(N5CCOC(CC(=O)O)C5)cc4)C[C@@H]3C2)NC(c2nccs2)=N[C@H]1c1ccc(F)cc1Cl (stereo partly drawn) [Example 76, 2-(4-(4-((S)-7-(((R)-6-(2-chloro-4-fluorophenyl)-5-(methoxycarbonyl)-2-(thiazol-2-yl)-3,6-dihydropyrimidin-4-yl)methyl)-3-oxohexahydroimidazo[1,5-a]pyrazin-2(3H)-yl)phenyl)morpholin-2-yl)acetic acid]",5.4
